Measured values taken from patent publication US11980609B2, “LPA receptor antagonists and uses thereof” (Gilead Sciences, Inc., priority 2021, dated 2024).

Molecular target: T1, human LPAR1 (Homo sapiens, UniProt Q92633)
T1 construct: host or cells: CHO-K1
Experiment: LPAR1 intracellular calcium mobilization assay (antagonist mode)
Type: cell-based
Settings: CHO-K1 EDG2 cells expressing human LPAR1; 60 min pre-incubation with compound (0.5 nM to 10 μM), then LPA 18:2 challenge; FLIPR Tetra calcium signal
Experimental: In vitro LPAR1 activity was measured in an intracellular calcium mobilization assay.
CHO-K1 EDG2 cells (DiscoverX cat #93-0644C2) expressing human LPAR1 (NM_001401.3) were seeded in a total volume of 25 μL of Dulbecco's Modification of Eagle's Medium (DMEM) with 10% Fetal Bovine Serum, 1× PenStrepGlutamine, 300 μg/ml Hygromycin, and 800 μg/ml G418 into 384-well tissue culture plate (Grenier #781091) at 15,000 cells/well and incubated at 37° C. overnight. Prior to testing, 25 μL Calcium Loading Dye Component A (FLIPR Calcium 6 Assay Kit Molecular Device #R8190) and 2.5 mM Probenecid (Invitrogen #P36400, prepared fresh) in Hank's Balanced Salt Solution (Corning #21-023-CV), 20 mM HEPES (Corning #25-060-CI), 0.1% Bovine Serum Albumin (Sigma-Aldrich #A7906-500G) was add to the cells for 60 minutes at 37° C.
Agonist dose curves of LPA 18:2 (Avanti Polar Lipids cat #857138, 0.5 nM to 10 μM) were recorded to determine the LPA 18:2 EC80 for subsequent antagonist assays. For agonist dose curves, cells were removed from the incubator 2 hours after dye loading and transferred to the FLIPR Tetra instrument (Molecular Devices, San Jose, CA). Calcium mobilization was monitored for 5 min and 10 μL 6×LPA in HBSS/20 mM Hepes/0.1% bovine serum albumin (BSA) was added to the cells 5 seconds into the assay.
To determine the LPAR1 antagonist activity of test compounds, cells were pre-incubated with test compound at a dose range of 0.5 nM to 10 μM, followed by LPA at […] concentration (100 nM). After dye loading, cells were removed from the incubator and 0.3 μL of 200× antagonist was added. Cells were incubated for 60 minutes at 37° C. Antagonist activity was measured on a FLIPR Tetra. Calcium mobilization was monitored for 3.5 minutes and 10 μL 6×EC80 LPA in HBSS, 20 mM HEPES, and 0.1% BSA was added to the cells 5 seconds into the assay. Signal amplitude (Maximum minus minimum) values were plotted against log10 of antagonist concentration using Dose Response Tool (Gilead Sciences Inc.) to determine EC50.
To assess the antagonistic potential of exemplified compounds EC50 values were determined for Compounds 1 to 55 in the LPAR1 calcium mobilization assay. The compound numbers correspond to the compound numbers in Examples 1 to 35. N/A=not available.

T1 sequence (Q92633 whole entry): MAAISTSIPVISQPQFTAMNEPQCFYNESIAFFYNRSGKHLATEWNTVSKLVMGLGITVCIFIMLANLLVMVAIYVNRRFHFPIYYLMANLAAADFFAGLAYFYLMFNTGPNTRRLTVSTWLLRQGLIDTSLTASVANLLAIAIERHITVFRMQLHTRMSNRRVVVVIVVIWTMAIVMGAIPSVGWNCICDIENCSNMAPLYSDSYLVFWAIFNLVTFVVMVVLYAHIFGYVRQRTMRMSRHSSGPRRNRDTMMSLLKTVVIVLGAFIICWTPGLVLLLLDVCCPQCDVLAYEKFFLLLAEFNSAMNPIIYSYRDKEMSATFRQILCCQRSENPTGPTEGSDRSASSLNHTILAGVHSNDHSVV

| SMILES | EC50 |
| --- | --- |
| C[C@@H](OC(=O)Nc1c(-c2ncc(NC(=O)C3(C(F)F)CC3)cn2)cnn1C)c1cc(F)cnc1Cl [Compound 25, (R)-1-(2-chloro-5-fluoropyridin-3-yl)ethyl (4-(5-(1-(difluoromethyl)cyclopropane-1-carboxamido)pyrimidin-2-yl)-1-methyl-1H-pyrazol-5-yl)carbamate] | 60.5 nM |
| C[C@@H](OC(=O)Nc1c(-c2ncc(OS(C)(=O)=O)cn2)cnn1C)c1cccnc1Cl [Compound 9, (R)-2-(5-(((1-(2-chloropyridin-3-yl)ethoxy)carbonyl)amino)-1-methyl-1H-pyrazol-4-yl)pyrimidin-5-yl methanesulfonate] | 42.9 nM |
| C[C@@H](OC(=O)Nc1c(-c2ncc(C(=O)NC34CC(C#N)(C3)C4)cn2)cnn1C)c1cc(F)cnc1F [Compound 46, (R)-1-(2,5-difluoropyridin-3-yl)ethyl (4-(5-((3-cyanobicyclo[1.1.1]pentan-1-yl)carbamoyl)pyrimidin-2-yl)-1-methyl-1H-pyrazol-5-yl)carbamate] | 158 nM |
| C[C@@H](OC(=O)Nc1c(-c2ncc(NC(=O)c3cnc(C(F)(F)F)nc3)cn2)cnn1C)c1cc(F)cnc1F [Compound 22, (R)-1-(2,5-difluoropyridin-3-yl)ethyl (1-methyl-4-(5-(2-(trifluoromethyl)pyrimidine-5-carboxamido)pyrimidin-2-yl)-1H-pyrazol-5-yl)carbamate] | 8.9 nM |
| C[C@@H](OC(=O)Nc1c(-c2ncc(O)cn2)cnn1C)c1cc(F)cnc1F [Compound 45, (R)-1-(2,5-difluoropyridin-3-yl)ethyl (4-(5-hydroxypyrimidin-2-yl)-1-methyl-1H-pyrazol-5-yl)carbamate] | 301 nM |
| C[C@@H](OC(=O)Nc1c(-c2ncc(OS(=O)(=O)C3CC3)cn2)cnn1C)c1cccnc1F [Compound 7, (R)-2-(5-(((1-(2-fluoropyridin-3-yl)ethoxy)carbonyl)amino)-1-methyl-1H-pyrazol-4-yl)pyrimidin-5-yl cyclopropanesulfonate] | 1410 nM |
| C[C@@H](OC(=O)Nc1c(-c2ccc3c(n2)OCC(=O)N3)cnn1C)c1cc(F)cnc1Cl [Compound 15, (R)-1-(2-chloro-5-fluoropyridin-3-yl)ethyl (1-methyl-4-(2-oxo-2,3-dihydro-1H-pyrido[2,3-b][1,4]oxazin-6-yl)-1H-pyrazol-5-yl)carbamate] | 25.7 nM |
| C[C@@H](OC(=O)Nc1c(-c2ncc(OS(C)(=O)=O)cc2F)cnn1C)c1cccnc1Cl [Compound 12, (R)-6-(5-(((1-(2-chloropyridin-3-yl)ethoxy)carbonyl)amino)-1-methyl-1H-pyrazol-4-yl)-5-fluoropyridin-3-yl methanesulfonate] | 31.1 nM |
| C[C@@H](OC(=O)Nc1c(-c2ncc(OS(C)(=O)=O)cc2F)cnn1C)c1cc(F)cnc1F [Compound 11, (R)-6-(5-(((1-(2,5-difluoropyridin-3-yl)ethoxy)carbonyl)amino)-1-methyl-1H-pyrazol-4-yl)-5-fluoropyridin-3-yl methanesulfonate] | 74 nM |
| C[C@@H](OC(=O)Nc1c(-c2ncc(NC(=O)C3(C)CC(F)(F)C3)cn2)cnn1C)c1cc(F)cnc1F [Compound 35, (R)-1-(2,5-difluoropyridin-3-yl)ethyl (4-(5-(3,3-difluoro-1-methylcyclobutane-1-carboxamido)pyrimidin-2-yl)-1-methyl-1H-pyrazol-5-yl)carbamate] | 14 nM |
| C[C@@H](OC(=O)Nc1c(-c2ncc(NC(=O)c3cnc(C(F)F)nc3)cn2)cnn1C)c1cc(F)cnc1F [Compound 24, (R)-1-(2,5-difluoropyridin-3-yl)ethyl (4-(5-(2-(difluoromethyl)pyrimidine-5-carboxamido)pyrimidin-2-yl)-1-methyl-1H-pyrazol-5-yl)carbamate] | 26.8 nM |
| C[C@@H](OC(=O)Nc1c(-c2ncc(NC(=O)C34CC(F)(C3)C4)cn2)cnn1C)c1cc(F)cnc1F [Compound 30, (R)-1-(2,5-difluoropyridin-3-yl)ethyl (4-(5-(3-fluorobicyclo[1.1.1]pentane-1-carboxamido)pyrimidin-2-yl)-1-methyl-1H-pyrazol-5-yl)carbamate] | 36.2 nM |
| C[C@@H](OC(=O)Nc1c(-c2ccc(NC(=O)C3(C#N)CC3)cn2)cnn1C)c1cc(F)cnc1F [Compound 19, (R)-1-(2,5-difluoropyridin-3-yl)ethyl (4-(5-(1-cyanocyclopropane-1-carboxamido)pyridin-2-yl)-1-methyl-1H-pyrazol-5-yl)carbamate] | 763 nM |
| COC1(C#N)CC(C(=O)Nc2cnc(-c3cnn(C)c3NC(=O)O[C@H](C)c3cc(F)cnc3F)nc2)C1 (stereo partly drawn) [Compound 43, (R)-1-(2,5-difluoropyridin-3-yl)ethyl (4-(5-(3-cyano-3-methoxycyclobutane-1-carboxamido)pyrimidin-2-yl)-1-methyl-1H-pyrazol-5-yl)carbamate] | 22.6 nM |
| C[C@@H](OC(=O)Nc1c(-c2ncc(C(O)C(F)(F)F)cn2)cnn1C)c1cc(F)cnc1F (stereo partly drawn) [Compound 53, (R)-1-(2,5-difluoropyridin-3-yl)ethyl (1-methyl-4-(5-(2,2,2-trifluoro-1-hydroxyethyl)pyrimidin-2-yl)-1H-pyrazol-5-yl)carbamate] | 745 nM |

Next, values leading:

| EC50 | SMILES |
| --- | --- |
| < 4.6 nM | C[C@@H](OC(=O)Nc1c(-c2ncc(NC(=O)[C@@H]3C[C@H]3C(F)(F)F)cn2)cnn1C)c1cc(F)cnc1F [Compound 29, (R)-1-(2,5-difluoropyridin-3-yl)ethyl (1-methyl-4-(5-((1R,2R)-2-(trifluoromethyl)cyclopropane-1-carboxamido)pyrimidin-2-yl)-1H-pyrazol-5-yl)carbamate] |
| 66.7 nM | C[C@@H](OC(=O)Nc1c(-c2ncc(NC(=O)[C@@H]3C[C@H]3C#N)cn2)cnn1C)c1cc(F)cnc1F [Compound 39, (R)-1-(2,5-difluoropyridin-3-yl)ethyl (4-(5-((1R,2R)-2-cyanocyclopropane-1-carboxamido)pyrimidin-2-yl)-1-methyl-1H-pyrazol-5-yl)carbamate] |
| 16.8 nM | C[C@@H](OC(=O)Nc1c(-c2ncc(NC(=O)C3(C#N)CC3)cn2)cnn1C)c1cc(F)cnc1Cl [Compound 23, (R)-1-(2-chloro-5-fluoropyridin-3-yl)ethyl (4-(5-(1-cyanocyclopropane-1-carboxamido)pyrimidin-2-yl)-1-methyl-1H-pyrazol-5-yl)carbamate] |
| < 4.6 nM | C[C@@H](OC(=O)Nc1c(-c2ncc(NC(=O)[C@@H]3C[C@H]3C(F)(F)F)cn2)cnn1C)c1cccnc1Cl [Compound 32, (R)-1-(2-chloropyridin-3-yl)ethyl (1-methyl-4-(5-((1R,2R)-2-(trifluoromethyl)cyclopropane-1-carboxamido)pyrimidin-2-yl)-1H-pyrazol-5-yl)carbamate] |
| 81.5 nM | C[C@@H](OC(=O)Nc1c(-c2ncc(NC(=O)C3(C#N)CC3)cn2)cnn1C)c1cc(F)cnc1F [Compound 21, (R)-1-(2,5-difluoropyridin-3-yl)ethyl (4-(5-(1-cyanocyclopropane-1-carboxamido)pyrimidin-2-yl)-1-methyl-1H-pyrazol-5-yl)carbamate] |
| 23.7 nM | C[C@@H](OC(=O)Nc1c(-c2ncc(NC(=O)C34CC(C(F)F)(C3)C4)cn2)cnn1C)c1cc(F)cnc1F [Compound 31, (R)-1-(2,5-difluoropyridin-3-yl)ethyl (4-(5-(3-(difluoromethyl)bicyclo[1.1.1]pentane-1-carboxamido)pyrimidin-2-yl)-1-methyl-1H-pyrazol-5-yl)carbamate] |
| 20.7 nM | C[C@@H](OC(=O)Nc1c(-c2ncc(NC(=O)C3(C)CC(F)(F)C3)cn2)cnn1C)c1cccnc1F [Compound 41, (R)-1-(2-fluoropyridin-3-yl)ethyl (4-(5-(3,3-difluoro-1-methylcyclobutane-1-carboxamido)pyrimidin-2-yl)-1-methyl-1H-pyrazol-5-yl)carbamate] |
| 11.6 nM | C[C@@H](OC(=O)Nc1c(-c2ncc(NC(=O)[C@@H]3C[C@H]3C(F)F)cn2)cnn1C)c1cc(F)cnc1F [Compound 34, (R)-1-(2,5-difluoropyridin-3-yl)ethyl (4-(5-((1R,2R)-2-(difluoromethyl)cyclopropane-1-carboxamido)pyrimidin-2-yl)-1-methyl-1H-pyrazol-5-yl)carbamate] |
| 15.8 nM | C[C@@H](OC(=O)Nc1c(-c2ncc(NC(=O)C34CC(F)(C3)C4)cc2F)cnn1C)c1cc(F)cnc1F [Compound 16, (R)-1-(2,5-difluoropyridin-3-yl)ethyl (4-(3-fluoro-5-(3-fluorobicyclo[1.1.1]pentane-1-carboxamido)pyridin-2-yl)-1-methyl-1H-pyrazol-5-yl)carbamate] |
